From ChEMBL document CHEMBL1146135, “Benzimidazole inhibitors of hepatitis C virus NS5B polymerase: identification of 2-[(4-diarylmethoxy)phenyl]-benzimidazole” (Bioorg Med Chem Lett, 2006)

What was measured:
[1] = target: T1, RNA-directed RNA polymerase (Hepacivirus hominis, UniProt O39930); assay: Inhibitory activity against HCV 1b NS5B RNA dependent RNA polymerase; set-up: species or system Hepatitis C virus subtype 1b
[2] = target: T2, DNA polymerase alpha catalytic subunit (Homo sapiens, UniProt P09884); assay: Inhibitory activity against DNA polymerase alpha
T2 sequence (P09884 whole entry): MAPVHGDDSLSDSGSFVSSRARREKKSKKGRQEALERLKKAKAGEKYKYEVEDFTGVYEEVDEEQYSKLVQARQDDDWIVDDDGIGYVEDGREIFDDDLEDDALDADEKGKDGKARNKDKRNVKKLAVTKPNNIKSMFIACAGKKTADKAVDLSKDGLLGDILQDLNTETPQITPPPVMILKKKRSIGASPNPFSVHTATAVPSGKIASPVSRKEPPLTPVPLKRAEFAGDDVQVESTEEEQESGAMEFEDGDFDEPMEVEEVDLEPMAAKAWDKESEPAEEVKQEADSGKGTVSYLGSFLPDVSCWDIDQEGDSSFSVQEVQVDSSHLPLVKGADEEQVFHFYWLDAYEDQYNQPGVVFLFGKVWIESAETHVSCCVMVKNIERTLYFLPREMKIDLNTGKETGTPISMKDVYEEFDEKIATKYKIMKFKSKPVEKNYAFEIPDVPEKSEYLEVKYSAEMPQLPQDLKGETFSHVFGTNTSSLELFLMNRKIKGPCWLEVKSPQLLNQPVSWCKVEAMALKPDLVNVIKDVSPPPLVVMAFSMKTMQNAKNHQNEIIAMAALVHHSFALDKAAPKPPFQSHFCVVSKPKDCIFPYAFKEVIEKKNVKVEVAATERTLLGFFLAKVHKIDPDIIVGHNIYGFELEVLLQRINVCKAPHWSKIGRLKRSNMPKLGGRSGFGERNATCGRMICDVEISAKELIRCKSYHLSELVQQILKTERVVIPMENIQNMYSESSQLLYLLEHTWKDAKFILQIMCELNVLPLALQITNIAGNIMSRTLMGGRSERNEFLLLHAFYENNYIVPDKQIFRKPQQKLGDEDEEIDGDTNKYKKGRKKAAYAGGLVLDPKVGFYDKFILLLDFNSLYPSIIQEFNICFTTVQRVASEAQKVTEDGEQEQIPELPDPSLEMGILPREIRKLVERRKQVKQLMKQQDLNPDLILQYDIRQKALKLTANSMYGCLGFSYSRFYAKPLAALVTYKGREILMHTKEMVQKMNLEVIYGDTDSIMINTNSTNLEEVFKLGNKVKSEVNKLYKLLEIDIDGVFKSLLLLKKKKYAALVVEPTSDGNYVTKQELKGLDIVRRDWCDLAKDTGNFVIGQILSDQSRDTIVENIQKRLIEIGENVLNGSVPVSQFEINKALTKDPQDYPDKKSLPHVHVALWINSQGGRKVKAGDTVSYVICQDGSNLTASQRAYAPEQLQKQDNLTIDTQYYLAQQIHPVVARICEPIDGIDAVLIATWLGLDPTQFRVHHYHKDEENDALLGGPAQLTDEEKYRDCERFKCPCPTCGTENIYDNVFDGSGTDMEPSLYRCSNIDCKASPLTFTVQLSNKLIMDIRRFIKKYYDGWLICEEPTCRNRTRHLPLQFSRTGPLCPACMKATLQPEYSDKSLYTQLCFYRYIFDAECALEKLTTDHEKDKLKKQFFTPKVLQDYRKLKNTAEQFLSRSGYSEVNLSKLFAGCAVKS

Huh-5-2 = assay: Cytotoxicity against Huh5-2 cells by MTT assay; type: functional; details: Homo sapiens
[3] = target: T1, RNA-directed RNA polymerase; assay: Inhibitory activity against HCV 1a NS5B RNA dependent RNA polymerase
DNA polymerase beta = DNA polymerase beta (Homo sapiens, UniProt P06746); assay: Inhibitory activity against DNA polymerase beta
[4] = target: RNA-directed RNA polymerase (Hepacivirus hominis) (UniProt O39930); assay: Inhibitory activity against HCV 1b NS5B RNA dependent RNA polymerase at 10 uM; details: Hepatitis C virus subtype 1b
Sequence of RNA-directed RNA polymerase (Hepacivirus hominis) (O39930 1-591): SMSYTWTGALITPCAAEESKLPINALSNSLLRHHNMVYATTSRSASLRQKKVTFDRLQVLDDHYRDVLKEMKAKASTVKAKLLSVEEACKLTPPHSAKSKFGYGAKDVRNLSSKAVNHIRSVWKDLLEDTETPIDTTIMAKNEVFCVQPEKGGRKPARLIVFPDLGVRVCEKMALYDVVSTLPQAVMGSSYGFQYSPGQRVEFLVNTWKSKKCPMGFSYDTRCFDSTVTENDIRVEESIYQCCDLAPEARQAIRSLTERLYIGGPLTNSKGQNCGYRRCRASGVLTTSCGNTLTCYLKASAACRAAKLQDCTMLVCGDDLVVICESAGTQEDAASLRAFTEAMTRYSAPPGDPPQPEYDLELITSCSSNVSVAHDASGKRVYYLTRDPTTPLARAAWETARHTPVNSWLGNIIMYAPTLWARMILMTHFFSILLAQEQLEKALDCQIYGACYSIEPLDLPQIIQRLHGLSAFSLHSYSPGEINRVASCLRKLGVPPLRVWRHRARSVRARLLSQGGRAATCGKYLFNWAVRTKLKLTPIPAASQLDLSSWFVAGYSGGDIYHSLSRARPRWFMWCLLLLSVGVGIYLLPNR

T1 sequence (O39930 whole entry): as the sequence (O39930 1-591) above

IC50 [1]	IC50 [2]	IC50 [3]	IC50 (DNA polymerase beta)	inhibition [4]	SMILES	CC50 (Huh-5-2)
1800 nM					O=C(O)c1ccc2c(c1)nc(-c1ccc(OCc3ccccc3)cc1)n2C1CCCCCC1	
1400 nM					O=C(O)c1ccc2c(c1)nc(-c1ccc(OCc3ccccc3)cc1)n2C1CCCCC1	
1200 nM					O=C(O)c1ccc2c(c1)nc(-c1ccc(OCCOc3ccccc3)cc1)n2C1CCCCC1	
3200 nM					O=C(O)c1ccc2c(c1)nc(-c1ccc(OCc3ccccc3)cc1)n2C1CCCC1	
				47%	NC(=O)c1ccc2c(c1)nc(-c1ccc(OCc3ccccc3)cc1)n2C1CCCC1	
300 nM					O=C(O)c1ccc2c(c1)nc(-c1ccc(OCc3ccccc3-c3ccccc3)cc1)n2C1CCCCC1	
390 nM					O=C(O)c1ccc2c(c1)nc(-c1ccc(OCc3cccc(-c4ccccc4)c3)cc1)n2C1CCCCC1	
800 nM					O=C(O)c1ccc2c(c1)nc(-c1ccc(OCCCc3ccccc3)cc1)n2C1CCCCC1	
980 nM					O=C(O)c1ccc2c(c1)nc(-c1ccc(OCC(c3ccccc3)c3ccccc3)cc1)n2C1CCCCC1	
1600 nM					O=C(O)c1ccc2c(c1)nc(-c1ccc(OCc3cccc(Cl)c3)cc1)n2C1CCCC1	
340 nM					O=C(O)c1ccc2c(c1)nc(-c1ccc(OCCc3ccccc3-c3ccccc3)cc1)n2C1CCCCC1	
4200 nM					O=C(O)c1ccc2c(c1)nc(-c1ccc(OCc3ccncc3)cc1)n2C1CCCC1	
1600 nM					Cc1ccc(COc2ccc(-c3nc4cc(C(=O)O)ccc4n3C3CCCC3)cc2)cc1	
580 nM					O=C(O)c1ccc2c(c1)nc(-c1ccc(Oc3ccccc3-c3ccccc3)cc1)n2C1CCCCC1	
1000 nM					O=C(O)c1ccc2c(c1)nc(-c1ccc(OCCCCCc3ccccc3)cc1)n2C1CCCCC1	
2300 nM					O=C(O)c1ccc2c(c1)nc(-c1ccc(OCc3ccccc3Cl)cc1)n2C1CCCC1	

Further lines, the compound ahead of its results:

SMILES	IC50 [1]	IC50 [2]	IC50 [3]	IC50 (DNA polymerase beta)	inhibition [4]	CC50 (Huh-5-2)
O=C(O)c1ccc2c(c1)nc(-c1ccc(OC(c3ccc(F)cc3)c3ccc(F)cc3)cc1F)n2C1CCCCC1	300 nM	> 10000 nM	840 nM	> 10000 nM		27200 nM
O=C(O)c1ccc2c(c1)nc(-c1ccc(OC(c3cccnc3)c3cccnc3)cc1F)n2C1CCCCC1	1100 nM	> 10000 nM	2200 nM	> 10000 nM		> 50000 nM
O=C(O)c1ccc2c(c1)nc(-c1ccc(OCc3cc(Cl)cc(Cl)c3)cc1)n2C1CCCC1	1700 nM					
O=C(O)c1ccc2c(c1)nc(-c1ccc(OC(c3ccccc3)c3cccnc3)cc1F)n2C1CCCCC1 (stereo not drawn)	270 nM	> 10000 nM	800 nM	> 10000 nM		> 50000 nM
O=C(O)c1ccc(COc2ccc(-c3nc4cc(C(=O)O)ccc4n3C3CCCC3)cc2)cc1	6700 nM					
O=C(O)c1ccc2c(c1)nc(-c1ccc(OC(c3ccccc3)c3ccccc3)cc1F)n2C1CCCCC1	96 nM	> 10000 nM	800 nM	> 10000 nM		27300 nM
CN(C)C(=O)c1ccc(C(Oc2ccc(-c3nc4cc(C(=O)O)ccc4n3C3CCCCC3)c(F)c2)c2ccc(C(=O)N(C)C)cc2)cc1	640 nM	> 10000 nM	950 nM	> 10000 nM		> 50000 nM
O=C(O)c1ccc2c(c1)nc(-c1ccc(OCc3ccc(C(F)(F)F)cc3)cc1)n2C1CCCC1	1800 nM					
O=C(O)c1ccc2c(c1)nc(-c1ccc(OC(c3ccc(F)cc3)c3ccc(F)cc3)cc1)n2C1CCCCC1	800 nM	> 10000 nM	1700 nM	> 10000 nM		27700 nM
O=C(O)c1ccc2c(c1)nc(-c1ccc(OC(c3cccc(F)c3)c3cccc(F)c3)cc1)n2C1CCCCC1	760 nM	> 10000 nM	1900 nM	> 10000 nM		24400 nM
O=C(O)c1ccc2c(c1)nc(-c1ccc(OC(c3ccc(Cl)cc3)c3ccc(Cl)cc3)cc1)n2C1CCCCC1	930 nM	> 10000 nM	2400 nM	> 10000 nM		23700 nM
O=C(O)c1ccc2c(c1)nc(-c1ccc(OC(c3ccccc3)c3ccccc3)cc1)n2C1CCCCC1	590 nM	> 10000 nM	1300 nM	> 10000 nM		31900 nM
O=C(O)c1ccc2c(c1)nc(-c1ccc(OCc3ccc(Cl)cc3)cc1)n2C1CCCC1	1200 nM					
O=C(O)c1ccc2c(c1)nc(-c1ccc(OCc3ccc(Cl)c(Cl)c3)cc1)n2C1CCCC1	1300 nM					
CC(C)(C)c1ccc(COc2ccc(-c3nc4cc(C(=O)O)ccc4n3C3CCCC3)cc2)cc1	1500 nM					
COc1ccc(COc2ccc(-c3nc4cc(C(=O)O)ccc4n3C3CCCC3)cc2)cc1	2100 nM					
Cc1ccc(C(Oc2ccc(-c3nc4cc(C(=O)O)ccc4n3C3CCCCC3)cc2)c2ccc(C)cc2)cc1	1200 nM	> 10000 nM	3100 nM	> 10000 nM		23500 nM
